2 compounds from PubChem BioAssay (NCI) can be followed below.

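48-hour exposure; five concentrations; linearly interpolated endpoints. TGI: concentration producing complete growth inhibition.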 Some results are limits rather than exact numbers.

Test systems include CAKI-1 renal; CCRF-CEM leukemia; HCT-116 colon; HT29 colon; K-562 leukemia; LOX IMVI melanoma; M14 melanoma; NCI-H23 lung; NCI-H460 lung; NCI/ADR-RES ovarian; OVCAR-5 ovarian; OVCAR-8 ovarian; RXF 393 renal; SK-MEL-28 melanoma; SK-MEL-5 melanoma; SN12C renal; SNB-75 CNS; SW-620 colon; U251 CNS; UACC-62 melanoma.
Common to all, as to assay: NCI-60 cell line screen, 48 h

For the compound `O=C(NN=C1CCCCC1)NN=C1CCCCC1`, the TGI in the test on CAKI-1 renal, in the test with CCRF-CEM leukemia, with HCT-116 colon, with HT29 colon, in the test on K-562 leukemia and in the test with LOX IMVI melanoma was greater than 100 µM in each case. For the same compound, the TGI in the test with M14 melanoma, in the test with NCI-H23 lung, in the test on NCI-H460 lung, in the test with NCI/ADR-RES ovarian, in the test on OVCAR-5 ovarian and in the test on OVCAR-8 ovarian was greater than 100 µM each time. Also, the TGI in the test on RXF 393 renal, in the test with SK-MEL-28 melanoma, in the test on SK-MEL-5 melanoma, in the test on SN12C renal, in the test on SNB-75 CNS and with SW-620 colon was greater than 100 µM throughout. In addition, the TGI in the test on U251 CNS and with UACC-62 melanoma was greater than 100 µM in each case.
Turning to `O=S(=O)(/N=C(\NO)Nc1ccc(Cl)cc1)c1ccc(-c2ccccn2)s1`, the TGI was 66 µM in the test on CAKI-1 renal; greater than 100 µM in the test on CCRF-CEM leukemia; greater than 100 µM in the test on HCT-116 colon; greater than 100 µM in the test on HT29 colon; greater than 100 µM in the test with K-562 leukemia; greater than 100 µM with LOX IMVI melanoma. Further, the TGI in the test on M14 melanoma, in the test on NCI-H23 lung, in the test with NCI-H460 lung, in the test with NCI/ADR-RES ovarian, in the test on OVCAR-5 ovarian and in the test on OVCAR-8 ovarian was greater than 100 µM throughout. The TGI with RXF 393 renal is 94.4 µM; with SK-MEL-28 melanoma, greater than 100 µM; in the test with SK-MEL-5 melanoma it was greater than 100 µM; in the test on SN12C renal, 72.9 µM; in the test on SNB-75 CNS, greater than 100 µM; in the test with SW-620 colon it was greater than 100 µM. Further, the TGI in the test with U251 CNS and in the test with UACC-62 melanoma was greater than 100 µM each time.
